Source: paper PMC10400579, “FDW028, a novel FUT8 inhibitor, impels lysosomal proteolysis of B7-H3 via chaperone-mediated autophagy pathway and exhibits potent efficacy against metastatic colorectal cancer” (Cell Death & Disease, 2023)

Experiments:
[1] = target: T1, Fucosyltransferase 8 (FUT8) (Homo sapiens, UniProt Q9BYC5); experiment: grating-coupled interferometry (GCI) with immobilized FUT8; supported by thermal shift of FUT8-Flag from SW480 cells (Tm +[…] °C at […]); format: binding
T1 sequence (Q9BYC5 31-575): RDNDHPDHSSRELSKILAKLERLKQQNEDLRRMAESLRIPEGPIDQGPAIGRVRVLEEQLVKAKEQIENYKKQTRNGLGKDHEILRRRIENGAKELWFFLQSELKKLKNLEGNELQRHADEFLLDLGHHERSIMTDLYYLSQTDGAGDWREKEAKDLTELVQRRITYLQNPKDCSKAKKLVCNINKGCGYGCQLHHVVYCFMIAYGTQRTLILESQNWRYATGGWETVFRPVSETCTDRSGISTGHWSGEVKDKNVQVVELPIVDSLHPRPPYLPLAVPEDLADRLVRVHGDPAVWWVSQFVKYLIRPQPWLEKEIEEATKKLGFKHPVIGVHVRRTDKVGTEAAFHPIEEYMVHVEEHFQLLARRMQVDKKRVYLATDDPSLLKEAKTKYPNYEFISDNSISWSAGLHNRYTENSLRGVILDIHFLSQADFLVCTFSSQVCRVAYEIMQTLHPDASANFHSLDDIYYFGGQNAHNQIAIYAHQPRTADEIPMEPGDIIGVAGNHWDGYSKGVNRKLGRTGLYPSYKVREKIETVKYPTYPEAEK

[2] = target: T2, Fucosyltransferase 8 (FUT8) (Homo sapiens, UniProt Q9BYC5); experiment: streptavidin pulldown from SW480 lysate with […] probe, western blot and LC-MS/MS; format: cell-based
T2 construct: FUT8-Flag
T2 sequence (Q9BYC5 1-575): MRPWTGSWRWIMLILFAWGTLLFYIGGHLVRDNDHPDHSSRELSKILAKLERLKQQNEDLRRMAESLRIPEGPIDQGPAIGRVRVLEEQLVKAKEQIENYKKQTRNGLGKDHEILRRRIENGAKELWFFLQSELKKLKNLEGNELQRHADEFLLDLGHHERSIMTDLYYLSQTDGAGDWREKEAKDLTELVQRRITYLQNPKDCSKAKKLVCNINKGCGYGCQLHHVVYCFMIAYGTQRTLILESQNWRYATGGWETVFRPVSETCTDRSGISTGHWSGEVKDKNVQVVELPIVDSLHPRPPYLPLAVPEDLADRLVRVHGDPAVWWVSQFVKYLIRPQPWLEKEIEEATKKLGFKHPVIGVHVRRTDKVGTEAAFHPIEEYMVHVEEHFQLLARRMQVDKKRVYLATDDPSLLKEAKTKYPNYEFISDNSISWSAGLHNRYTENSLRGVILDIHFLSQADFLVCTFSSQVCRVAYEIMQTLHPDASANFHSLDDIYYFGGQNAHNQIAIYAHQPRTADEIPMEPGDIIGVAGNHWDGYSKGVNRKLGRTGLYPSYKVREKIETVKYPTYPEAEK

Kd [1] [µM]	SMILES	streptavidin pulldown from SW480 lysate with 0.2 mM probe, western blot and LC-M [2]
5.49	CCc1ccc(CNc2nc3nc(CNCc4ccccc4)cc(O)n3n2)cc1 [D2-1c, FDW028]	–
–	CCc1ccc(CNc2nc3nc(CN(Cc4ccccc4)C(=O)CCOCCOCCOCCOCCOCCOCCNC(=O)CCCC[C@@H]4SC[C@@H]5NC(=O)N[C@@H]54)cc(O)n3n2)cc1 [FDW028-PEG6-biotin]	much more FUT8-Flag was pulled down by FDW028-PEG6-biotin than the control
